Entries after “also recorded” stand apart in the source; their conditions may differ. Read-outs that look alike come from different tables or passages of the source.
Tests used:
rat nNOS = target: T1, rat nNOS (Rattus norvegicus, UniProt P29476); experiment: NOS enzyme assay (hemoglobin capture), nNOS; format: biochemical; settings: for activity/potency for nNOS in words: purified enzyme assay; for Ki: rat nNOS; for n/e: ratio of Ki (eNOS) to Ki (nNOS); for n/e / n/i: Tables 1-3; for n/i: ratio of Ki (iNOS) to Ki (nNOS)
T1 construct: made in house; host or cells: E. coli

[1] = target: T2, nNOS in 293T cells overexpressing nNOS (293T/nNOS cells) (Rattus norvegicus, UniProt P29476); experiment: Cell-based assay: inhibition of nNOS in 293T/nNOS cells, nitrite by Griess reagent; settings: for activity in the cell-based assay in words: 293T/nNOS cells, FIG. 4; for membrane penetration ability / bioavailability based on cell-based assay: inferred from 293T/nNOS cell-based assay
T2 construct: expressed in transfected cells; host or cells: 293T cells (293T/nNOS)

murine macrophage iNOS = target: T3, murine macrophage iNOS (Mus musculus, UniProt P29477); experiment: NOS enzyme assay (hemoglobin capture), iNOS; format: biochemical
T3 construct: made in house; host or cells: E. coli

bovine eNOS = target: T4, bovine eNOS (Bos taurus, UniProt P29473); experiment: NOS enzyme assay (hemoglobin capture), eNOS; format: biochemical
T4 construct: made in house; host or cells: E. coli

[2] = Ki calculated from directly measured IC50 values, read-out: Ki nNOS
[3] = Ki calculated from directly measured IC50 values, read-out: Ki iNOS
[4] = Ki calculated from directly measured IC50 values, read-out: Ki eNOS
[5] = Table 4, read-out: Ki (μM) nNOS
[6] = Table 4, read-out: Ki (μM) iNOS
[7] = Table 4, read-out: Ki (μM) eNOS

activity/potency for nNOS in words (rat nNOS)	Ki (rat nNOS; [2]) [µM]	SMILES	Selectivity n/e (rat nNOS; Table 4)	Selectivity n/i (rat nNOS; Table 4)	Ki (rat nNOS; [5]) [µM]	Ki (murine macrophage iNOS; [6]) [µM]	Ki (bovine eNOS; [7]) [µM]	other results
poor activity	> 11.5	Cc1cc(C)nc(NCc2ccc3cc(CNc4cc(C)cc(C)n4)ccc3c2)c1 [3a, N,N′-(Naphthalene-2,6-diylbis(methylene))bis(4,6-dimethylpyridin-2-amine)]	–	–	–	–	–	–
–	–	Cc1cc(N)nc(CCc2cc(CCc3cc(C)cc(N)n3)cc(N3CCNCC3)c2)c1 [HH025]	30	17	2.1	36.7	63.2	–
–	–	Cc1cc(N)nc(CCc2cc(CCc3cc(C)cc(N)n3)cc(N3CCN(C)CC3)c2)c1 [HH027]	17	24	5.75	138	97.4	–
–	–	Cc1cc(N)nc(CCc2cccc(CCc3cc(C)cc(N)n3)c2)c1 [3g, 6,6′-(2,2′-(1,3-Phenylene)bis(ethane-2,1-diyl))bis(4-methylpyridin-2-amine)]	–	–	–	–	–	activity in the cell-based assay in words [1]: almost no activity
inactive	0.167	Cc1cc(N)nc(CCc2ccc(CCc3cc(C)nc(N)c3)cc2)c1 [3f, 4-(4-(2-(6-Amino-4-methylpyridin-2-yl)ethyl)phenethyl)-6-methylpyridin-2-amine]	–	–	–	–	–	–
–	–	Cc1cc(N)nc(CCc2cc(CCCN)cc(CCc3cc(C)cc(N)n3)c2)c1 [HH026]	22	60	0.54	32.5	12.1	–
–	–	Cc1cc(N)nc(CCc2cncc(CCc3cc(C)cc(N)n3)c2)c1 [3j, 6,6′-(2,2′-(Pyridine-3,5-diyl)bis(ethane-2,1-diyl))bis(4-methylpyridin-2-amine)]	–	–	–	–	–	membrane penetration ability / bioavailability based on cell-based assay [1]: very good membrane penetration ability; also recorded: improved bioavailability
–	–	Cc1cc(N)nc(CCc2cc(CN)cc(CCc3cc(C)cc(N)n3)c2)c1 [HH030, 6,6′-((5-(aminomethyl)-1,3-phenylene)bis(ethane-2,1-diyl))bis(4-methylpyridin-2-amine)]	221	119	0.053	6.31	11.7	–
–	–	Cc1cc(N)nc(CCc2ccc(CCCN)c(CCc3cc(C)cc(N)n3)c2)c1 [HH032]	303	199	0.11	21.9	33.4	–
poor activity	2.25	Cc1cc(CCc2cccc(CCc3cc(C)nc(N)c3)c2)cc(N)n1 [3i, 4,4′-(2,2′-(1,3-Phenylene)bis(ethane-2,1-diyl))bis(6-methylpyridin-2-amine)]	–	–	–	–	–	–
little activity	> 0.5	Cc1cc(N)nc(CCc2ccc3ccc(CCc4cc(C)nc(N)c4)cc3c2)c1 [3d, 4-(2-(7-(2-(6-Amino-4-methylpyridin-2-yl)ethyl)naphthalen-2-yl)ethyl)-6-methylpyridin-2-amine]	–	–	–	–	–	–
–	0.102	Cc1cc(N)nc(CCc2ccc3ccc(CCc4cc(C)cc(N)n4)cc3c2)c1 [3c, 6,6′-(2,2′-(Naphthalene-2,7-diyl)bis(ethane-2,1-diyl))bis(4-methylpyridin-2-amine)]	–	–	–	–	–	n/e (rat nNOS): 14.9; n/i (rat nNOS): 20.1; Ki (murine macrophage iNOS; [3]): 2.05 µM; Ki (bovine eNOS; [4]): 1.52 µM

SMILES	activity/potency for nNOS in words (rat nNOS)	Ki (rat nNOS; [2]) [µM]	Selectivity n/e (rat nNOS; Table 4)	Selectivity n/i (rat nNOS; Table 4)	Ki (rat nNOS; [5]) [µM]	Ki (murine macrophage iNOS; [6]) [µM]	Ki (bovine eNOS; [7]) [µM]	other results
Cc1cc(N)nc(CCc2cccc(CCc3cc(C)nc(N)c3)c2)c1 [3h, 4-(3-(2-(6-Amino-4-methylpyridin-2-yl)ethyl)phenethyl)-6-methylpyridin-2-amine]	highly potent	0.038	–	–	–	–	–	selectivity for nNOS over eNOS (rat nNOS): 111 fold; selectivity for nNOS over iNOS (rat nNOS): 71.8 fold; n/e (rat nNOS): 111; n/i (rat nNOS): 71.8; activity in the cell-based assay in words [1]: almost no activity; Ki (murine macrophage iNOS; [3]): 2.73 µM; Ki (bovine eNOS; [4]): 4.2 µM
Cc1cc(N)nc(CCc2cc(C#N)cc(CCc3cc(C)cc(N)n3)c2)c1 [HH006, 3,5-bis(2-(6-amino-4-methylpyridin-2-yl)ethyl)benzonitrile]	good potency and selectivity	–	472	239	0.056	13.4	26.4	–
Cc1cc(N)nc(CCc2cncc(CCc3cc(C)nc(N)c3)c2)c1 [3k, 4-(2-(5-(2-(6-Amino-4-methylpyridin-2-yl)ethyl)pyridin-3-yl)ethyl)-6-methylpyridin-2-amine]	highly potent	0.103	–	–	–	–	–	selectivity for nNOS over eNOS (rat nNOS): 156 fold; n/e (rat nNOS): 156; n/i (rat nNOS): 19; membrane penetration ability / bioavailability based on cell-based assay [1]: very good membrane penetration ability; Ki (murine macrophage iNOS; [3]): 1.91 µM; Ki (bovine eNOS; [4]): 16.1 µM
Cc1cc(N)nc(CCc2ccc3cc(CCc4cc(C)cc(N)n4)ccc3c2)c1 [3b, 6,6′-(2,2′-(Naphthalene-2,6-diyl)bis(ethane-2,1-diyl))bis(4-methylpyridin-2-amine)]	–	0.241	–	–	–	–	–	selectivity for nNOS over eNOS (rat nNOS): 7 fold; selectivity for nNOS over iNOS (rat nNOS): 9 fold; n/e (rat nNOS): 7.22; n/i (rat nNOS): 9.42; Ki (murine macrophage iNOS; [3]): 2.27 µM; Ki (bovine eNOS; [4]): 1.74 µM
Cc1cc(N)nc(CCc2ccc(CCc3cc(C)cc(N)n3)cc2)c1 [3e]	–	0.097	–	–	–	–	–	selectivity for nNOS over eNOS (rat nNOS): 25 fold; n/e (rat nNOS): 24.6; n/i (rat nNOS): 24.8; Ki (murine macrophage iNOS; [3]): 2.41 µM; Ki (bovine eNOS; [4]): 2.39 µM
